The subject of experiment [1] is influenza A virus, A/PR/8/34 (H1 N1) strain. In words: Viral replication in the lungs of infected mice, plaque assay using MDCK. Format: in vivo, BALB/cN mice. The source says: (§1) The virus used in the present invention was the influenza A virus, A/PR/8/34 (H1 N1) strain (hereinafter referred to “PR8”); the mice were 6-week old female SPF (specific pathogen-free) BALB/cN mice (Charles River Japan Co., Ltd.); and the cells were A549 cells derived from human alveolar epithelial cell.
(§2) The mice were randomly divided into the following 4 treatment groups, and tested: (1) Control group; intranasl infection with PR8 (2×10^5 PFU) (2) 150G-PR8; group; after administration of 150 mg/kg of GGA, infected with the same amount of PR8 in the same manner as the control group; (3) 75G-PR8 group; after administration of 75 mg/kg of GGA, infected with the same amount of PR8 in the same manner as the control group; (4) 15G-PR8 group; after administration of 15 mg/kg of GGA, infected with the same amount of PR8 in the same manner as the control group. The aforementioned group (1) refers to the control group, and groups (2) to (4) refer to the GGA treated group prior to infection. The GGA treated groups were orally administered GGA every 12 hours for 3 weeks.
FIG. 2 indicates the effects of GGA on viral replication in the lungs of the mice of the various groups after infection by an influenza virus according to the present invention. Here, the assay of virus in the lung was conducted by plaque assay using MDCK.

The test system is the same in experiment [2]. In words: Weight loss in mouse PR8 infection model. The experiment is classed as in vivo, BALB/cN mice. Particulars: GGA treated groups (oral every 12 hours for 3 weeks before infection) except the 75G-PR8 group; control weight loss reaching 30%. Here is the method:
FIG. 1 indicates an improvement trend of clinical infection symptoms caused by administration of GGA in a mouse PR8 infection model according to the present invention. BALC/c mice that used in the present invention were randomly allotted into the following 4 groups: (1) Control group (n=30) is transnasally administered 2×10^5 PFU of A/PR/8/34; the GGA pre-treatment groups were orally administered GGA every 12 hours for 3 weeks in doses of: (2) 150 mg/kg (150G-PR8 group; n=30), (3) 75 mg/kg (75G-PR8 group; n=30), (4) 15 mg/kg (15G-PR8 group; n=30) and were infected with PR8 after 3 weeks in the same manner. The body weights of the mice were measured 1, 2, 3, 4, 7, and 10 days after infection;
as §1
First, the aforementioned mice were raised in a cage for each 4 mice under clean conditions and allowed free access to sterilized feed and water. […]

The subject of experiment [3] is HSP70. Format: in vivo, BALB/c mice.
In experiment [4] the test system is viral nucleoprotein (NP) of PR8. In words: Viral nucleoprotein (NP) synthesis in the lungs of infected mice, Western blot and EIA. The settings on record: GGA treated groups compared with control group. Format: in vivo, BALB/cN mice.
Description: as §1, §2
FIG. 3 indicates the results of the effects of GGA on viral nucleoprotein (called “NP” hereinafter) synthesis in the lungs of the mice of the various groups after infection by an influenza virus according to the present invention. The amount of NP synthesis was measured with Western blot analysis. […]
On the technique in general: Immunoblotting shows a protein as a band on a membrane.

The test system of experiment [5] is interferon-inducible double-stranded RNA activated protein kinase (PKR). In words: PKR mRNA expression in A549 cells, RT-PCR. Format: cell-based, human. Particulars: β-actin control. The text has this: FIG. 13 indicates the results of using RT-PCR to assay the mRNA expression of interferon-inducible double-stranded RNA activated protein kinase (hereinafter referred to “PKR”), which has an antiviral action. […] It should be noted that β-actin in this diagram was used was a control.

Experiment [6] has as its system HSP70. In words: HSP induction in A549 cells (northern blot, 35S-methionine pulse labeling, western blot). The experiment is classed as cell-based, human.
The subject of experiment [7] is influenza A virus, A/PR/8/34 (H1 N1) strain. Format: cell-based. Particulars: A549 cells.
Experiment [8] concerns M×A genes. In words: Expression of antiviral gene MxA in PR8-infected A549 cells, northern blot. The experiment is classed as cell-based, human. The source says: Studied next were the effects of GGA treatment on the expression of antiviral genes after infection by PR8, and the results are indicated in FIGS. 12 and 13. […] It should be noted that the GAPDH in FIG. 12 was used as a control in the same way as previously described in FIG. 5.

Where [9] appears, read: GGA treatment (+), pulse labeling.

On to `CC(=O)CC/C=C(\C)CC/C=C(\C)CC/C=C(\C)CCC=C(C)C` [GGA, 6, 10, 14, 18-tetramethyl-5,9, 13, 17-nonadecatetraen-2-one], for which the “time after infection at which virus was completely eliminated from the lungs” value in experiment [1] (75G-PR8 group (75 mg/kg GGA)) was determined as 4 days. The “time after infection at which virus was completely eliminated from the lungs” value in experiment [1] (150G-PR8 group (150 mg/kg GGA)) turned out to be 3 days. Further, the “growth of virus in the lungs” value in experiment [1] (GGA 150, 75, 15 mg/kg oral every 12 hours for 3 weeks before PR8 infection, vs control) is given as “suppressed in a GGA dose-dependent manner”. The “weight loss caused by PR8 infection” value in experiment [2] is given as “almost no weight loss”. Moreover, in experiment [3] ([…], GAPDH control), the “amount of HSP70 mRNA expressed in the lungs after PR8 infection” value is “dependent on the amount of GGA administered”. Moreover, the “expression of HSP70 in the lungs, GGA alone” value in experiment [3] (mouse, in vivo) is reported as “induced in a dose dependent manner”. In experiment [4], the “NP synthesis in the lungs, Western blot” value is on record as “suppression of NP synthesis in a dose dependent manner” and the “capacity to synthesize NP after infection with PR8, EIA” value is given as “notably reduced”. In addition, the “expression of PKR mRNA” value in experiment [5] is listed as “enhanced expression”. For the same molecule, in experiment [6] (A549 cells, western blot with HSP70 antibodies), the “time of peak HSP70 expression after administering GGA” value turned out to be 6 h. Further, the “expression of HSP70 mRNA in A549 cells” value in experiment [6] (northern blot, GAPDH control) is “induced in a concentration and time dependent manner”. Further, in experiment [7] (setting [9]), the “HSP70 synthesis in the early period of infection” value was “enhancement of HSP70 synthesis was observed” and the “time after infection at which NP synthesis began” value was > 12 h. In addition, in experiment [7] (PR8 infection, pulse labeling), the “NP synthesis capacity compared to GGA treatment (−)” value was “suppressed”. In addition, the “capacity to synthesize viral proteins of PR8 (HA, NP, M1, NS1)” value in experiment [7] (compared to the control) is reported as “notably suppressed”. Besides, in experiment [7] (densitometric analysis at 3, 6, 12, 24 hours), the “duration of HSP70 expression after PR8 infection” value is reported as “up to 12 hours”. Moreover, the “time after infection up to which expression of NP was prevented” value in experiment [7] (western blot) is listed as “up to 12 hours”. The “expression of M×A genes” value in experiment [8] (A549 cells after infection with PR8, GAPDH control) is “enhanced”. Besides, the “expression of HSP mRNA after PR8 infection” value in experiment [8] (A549 cells after infection with PR8, northern blot) is “enhanced”.

For the origin of these results see patent US7341988B2, “Method of treating influenza with geranyl-geranyl acetone” (Eisai R&D Management Co., Ltd., priority 2001, dated 2008).
